Patent publication EP1247803A2, “Indolinone compounds suitable for modulation of protein kinases” (Sugen, Inc., priority 1996, dated 1998)

Tests used:
[1] = biological target: T1, EGFR (Homo sapiens, UniProt P00533); assay: EGFR ELISA assay (in vitro kinase activity, EGFR captured from A431 cell lysate); format: biochemical; design: concentration or dose not given beside the values
T1 construct: Add 7 ug A431 cell lysate per well (EGFR source); endogenous in cells; host or cells: A431
How it was run: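 EGFR from A431 lysate was captured on plates coated with anti-EGFR antibody. Compounds were added 30 min before a 5 min phosphorylation with 3 µM ATP/5 mM MnCl2, which was stopped with 20 mM EDTA. Phosphotyrosine was detected with rabbit anti-phosphotyrosine, then a peroxidase-conjugated secondary and ABTS/H2O2, read at 410 nm.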

[2] = test system: MET; assay: MET biochemical kinase assay; design: species or system human; concentration or dose not given beside the values
How it was run: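 Capture ELISA: anti-rabbit Fc coat, rabbit anti-MET cytoplasmic domain pAb, lysate MET captured, washed. Compound + kinase buffer (ATP, divalent metals). Readout anti-pTyr-HRP/TMB, colorimetric.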

T1 sequence (P00533 25-1210): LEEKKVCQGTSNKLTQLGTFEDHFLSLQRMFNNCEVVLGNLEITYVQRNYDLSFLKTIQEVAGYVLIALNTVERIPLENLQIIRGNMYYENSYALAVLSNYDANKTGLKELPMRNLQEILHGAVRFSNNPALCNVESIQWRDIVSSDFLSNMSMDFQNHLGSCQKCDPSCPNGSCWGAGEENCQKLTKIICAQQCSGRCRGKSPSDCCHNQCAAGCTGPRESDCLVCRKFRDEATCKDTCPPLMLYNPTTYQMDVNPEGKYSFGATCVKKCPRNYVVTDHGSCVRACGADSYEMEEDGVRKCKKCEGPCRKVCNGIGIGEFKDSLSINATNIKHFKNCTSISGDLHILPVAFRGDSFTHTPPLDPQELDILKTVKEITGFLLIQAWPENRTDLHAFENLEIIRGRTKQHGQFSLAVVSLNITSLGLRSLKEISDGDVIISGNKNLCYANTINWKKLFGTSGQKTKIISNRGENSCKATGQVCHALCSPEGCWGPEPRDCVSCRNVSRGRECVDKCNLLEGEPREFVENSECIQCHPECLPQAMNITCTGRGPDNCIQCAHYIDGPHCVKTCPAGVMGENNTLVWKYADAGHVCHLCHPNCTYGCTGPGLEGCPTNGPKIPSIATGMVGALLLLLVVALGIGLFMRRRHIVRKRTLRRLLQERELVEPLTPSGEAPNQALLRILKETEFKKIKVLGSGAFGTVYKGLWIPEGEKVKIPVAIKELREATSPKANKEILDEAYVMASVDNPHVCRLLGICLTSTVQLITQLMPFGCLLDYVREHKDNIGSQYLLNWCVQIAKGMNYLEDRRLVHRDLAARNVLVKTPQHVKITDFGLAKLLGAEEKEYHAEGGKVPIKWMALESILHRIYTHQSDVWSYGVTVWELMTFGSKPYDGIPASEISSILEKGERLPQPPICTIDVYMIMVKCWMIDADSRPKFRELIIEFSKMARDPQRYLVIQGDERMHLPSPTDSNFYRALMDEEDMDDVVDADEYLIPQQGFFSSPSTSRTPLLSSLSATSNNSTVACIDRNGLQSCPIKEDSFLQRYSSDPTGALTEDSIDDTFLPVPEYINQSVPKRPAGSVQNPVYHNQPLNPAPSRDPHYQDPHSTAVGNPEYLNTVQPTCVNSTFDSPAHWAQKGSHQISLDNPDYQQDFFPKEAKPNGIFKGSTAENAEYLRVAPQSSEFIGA

O=C1Nc2ccc(S(=O)(=O)Nc3ccc(C(F)(F)F)cc3)cc2C1=Cc1cc(Cl)ccc1O [10734/E04]
Biochem EGFR %Inhibition [1]: -7.8% | Met Kinase % Inhibition [2]: 88.9%

CCN(CC)c1ccc(C=C2C(=O)Nc3ccc(S(=O)(=O)Nc4ccc(C(F)(F)F)cc4)cc32)c(O)c1 [10734/E05]
Biochem EGFR %Inhibition [1]: 7.9% | Met Kinase % Inhibition [2]: 63.6%

O=C1Nc2ccc(S(=O)(=O)Nc3ccc(C(F)(F)F)cc3)cc2C1=Cc1ccc([N+](=O)[O-])cc1 [10734/E06]
Biochem EGFR %Inhibition [1]: 6.3% | Met Kinase % Inhibition [2]: 50.6%

O=C1Nc2ccc(S(=O)(=O)Nc3ccc(C(F)(F)F)cc3)cc2C1=Cc1cc(Br)cc(Br)c1O [10734/E07]
Biochem EGFR %Inhibition [1]: 82.4% | Met Kinase % Inhibition [2]: 100.8%

O=C1Nc2ccc(S(=O)(=O)Nc3ccc(C(F)(F)F)cc3)cc2C1=Cc1cccc(F)c1O [10734/E08]
Biochem EGFR %Inhibition [1]: 24.2% | Met Kinase % Inhibition [2]: 89.1%

O=C1Nc2ccc(S(=O)(=O)Nc3ccc(C(F)(F)F)cc3)cc2C1=Cc1ccc(O)c(Br)c1 [10734/E09]
Biochem EGFR %Inhibition [1]: 73.0% | Met Kinase % Inhibition [2]: 96.2%

CC(C)(C)c1ccc(C=C2C(=O)Nc3ccc(S(=O)(=O)Nc4ccc(C(F)(F)F)cc4)cc32)cc1 [10734/E10]
Biochem EGFR %Inhibition [1]: -5.0% | Met Kinase % Inhibition [2]: 27.9%

O=C1Nc2ccc(S(=O)(=O)Nc3ccc(C(F)(F)F)cc3)cc2C1=Cc1ccc(Br)s1 [10734/E11]
Biochem EGFR %Inhibition [1]: -8.0% | Met Kinase % Inhibition [2]: 67.1%

CCOc1cccc(C=C2C(=O)Nc3ccc(S(=O)(=O)N4CCOCC4)cc32)c1O [10734/F02]
Biochem EGFR %Inhibition [1]: 0.7% | Met Kinase % Inhibition [2]: 55.0%

O=C1Nc2ccc(S(=O)(=O)N3CCOCC3)cc2C1=Cc1cc(Cl)cc(Cl)c1O [10734/F03]
Biochem EGFR %Inhibition [1]: 24.8% | Met Kinase % Inhibition [2]: 86.8%

O=C1Nc2ccc(S(=O)(=O)N3CCOCC3)cc2C1=Cc1cc(Cl)ccc1O [10734/F04]
Biochem EGFR %Inhibition [1]: 3.9% | Met Kinase % Inhibition [2]: 76.5%

CCN(CC)c1ccc(C=C2C(=O)Nc3ccc(S(=O)(=O)N4CCOCC4)cc32)c(O)c1 [10734/F05]
Biochem EGFR %Inhibition [1]: -15.6% | Met Kinase % Inhibition [2]: 73.8%

O=C1Nc2ccc(S(=O)(=O)N3CCOCC3)cc2C1=Cc1ccc([N+](=O)[O-])cc1 [10734/F06]
Biochem EGFR %Inhibition [1]: -17.1% | Met Kinase % Inhibition [2]: 64.2%

O=C1Nc2ccc(S(=O)(=O)N3CCOCC3)cc2C1=Cc1cc(Br)cc(Br)c1O [10734/F07]
Biochem EGFR %Inhibition [1]: 33.7% | Met Kinase % Inhibition [2]: 95.7%

O=C1Nc2ccc(S(=O)(=O)N3CCOCC3)cc2C1=Cc1cccc(F)c1O [10734/F08]
Biochem EGFR %Inhibition [1]: -23.6% | Met Kinase % Inhibition [2]: 66.3%

O=C1Nc2ccc(S(=O)(=O)N3CCOCC3)cc2C1=Cc1ccc(O)c(Br)c1 [10734/F09]
Biochem EGFR %Inhibition [1]: 3.1% | Met Kinase % Inhibition [2]: 93.9%

CC(C)(C)c1ccc(C=C2C(=O)Nc3ccc(S(=O)(=O)N4CCOCC4)cc32)cc1 [10734/F10]
Biochem EGFR %Inhibition [1]: -8.3% | Met Kinase % Inhibition [2]: 44.8%

CCOc1cccc(C=C2C(=O)Nc3ccc(CCCl)cc32)c1O [10734/G02]
Biochem EGFR %Inhibition [1]: 3.4% | Met Kinase % Inhibition [2]: 63.6%

O=C1Nc2ccc(CCCl)cc2C1=Cc1cc(Cl)cc(Cl)c1O [10734/G03]
Biochem EGFR %Inhibition [1]: 82.8% | Met Kinase % Inhibition [2]: 93.4%

O=C1Nc2ccc(CCCl)cc2C1=Cc1cc(Cl)ccc1O [10734/G04]
Biochem EGFR %Inhibition [1]: 62.9% | Met Kinase % Inhibition [2]: 72.1%

CCN(CC)c1ccc(C=C2C(=O)Nc3ccc(CCCl)cc32)c(O)c1 [10734/G05]
Biochem EGFR %Inhibition [1]: -0.3% | Met Kinase % Inhibition [2]: 57.7%

O=C1Nc2ccc(CCCl)cc2C1=Cc1ccc([N+](=O)[O-])cc1 [10734/G06]
Biochem EGFR %Inhibition [1]: 12.5% | Met Kinase % Inhibition [2]: 43.1%

O=C1Nc2ccc(CCCl)cc2C1=Cc1cc(Br)cc(Br)c1O [10734/G07]
Biochem EGFR %Inhibition [1]: 51.1% | Met Kinase % Inhibition [2]: 96.6%

O=C1Nc2ccc(CCCl)cc2C1=Cc1cccc(F)c1O [10734/G08]
Biochem EGFR %Inhibition [1]: 33.7% | Met Kinase % Inhibition [2]: 82.2%

O=C1Nc2ccc(CCCl)cc2C1=Cc1ccc(O)c(Br)c1 [10734/G09]
Biochem EGFR %Inhibition [1]: 21.4% | Met Kinase % Inhibition [2]: 84.7%

CC(C)(C)c1ccc(C=C2C(=O)Nc3ccc(CCCl)cc32)cc1 [10734/G10]
Biochem EGFR %Inhibition [1]: 3.8% | Met Kinase % Inhibition [2]: 19.3%

O=C1Nc2ccc(CCCl)cc2C1=Cc1ccc(Br)s1 [10734/G11]
Biochem EGFR %Inhibition [1]: 4.1% | Met Kinase % Inhibition [2]: 20.2%
